Data from patent publication US20150038589A1, “Nutritional Product Comprising a Biguanide” (priority 2011, published 2015).

What was measured:
[1] = cited from earlier work
[2] = Cookie comprising metformin consumed by human volunteers; blood samples; type: in vivo; conditions: one cookie (250 mg metformin); for concentration at 1 h / concentration at 2 h / concentration at 4 h / concentration at 0 h: human, blood, oral, 250 mg, empty stomach; for concentration at 1 h: 1 hr after consumption; for concentration at 2 h: 2 hrs after consumption; for concentration at 4 h: 4 hrs after consumption; for concentration at 0 h: before consumption
Method: A cookie dough was prepared comprising 1000 mg fine-ground metformin per 100 g conventional cookie dough, by mixing fine-ground metformin into the dough. 40 droplets of lemon juice per 100 g dough were added to the dough comprising the metformin, in order to neutralise the bitter taste of the metformin. Thereafter, the dough was divided in pieces of 25 g, from which pieces cookies were baked in a conventional way.
Human volunteers each consumed one cookie (providing 250 mg metformin) on an empty stomach. Blood samples were taken before consumption, 1 hour after consumption, 2 hours after consumption and 4 hours after consumption.

[3] = Clinical test: double-blind trial of yoghurt drink with added metformin, 6 weeks; conditions: for Hyperinsulinaemia Internationale Unit / fasting glucose: change after 42 days
[4] = Stability test of metformin in yoghurt (pH and metformin content); type: physicochemical
Method: Yoghurt is prepared as described in Example 3. A batch comprising no metformin (placebo), a batch comprising 200 mg metformin per 100 gram (low dosage) and a batch comprising 360 mg metformin (high dosage) were made.
Part of the batches were stored in a fridge (about 4° C.), other parts at room temperature (about 20° C.). Product stability was determined by measuring pH and the metformin content (measured amount as a percentage of the added amount), weekly for a period of 35 days. […] Stability at room temperature was determined for only 35 days. Tables 6 and 7 show the measured amount of metformin in both products comprising metformin (relative to calculated amount=100%). No metformin was measured in the placebo.

[5] = up to 4 hours after consumption
[6] = Trial group I (n = 6), 250 mg metformin/day in yoghurt, after 42 days
[7] = Trial group I (n = 6), 250 mg metformin/day in yoghurt
[8] = Trial group II (n = 4), 450 mg metformin/day in yoghurt, after 42 days
[9] = Trial group II (n = 4), 450 mg metformin/day in yoghurt
[10] = subjects with the product of the invention, after 42 days

Structure (SMILES): CN(C)C(=N)NC(=N)N [metformin, N,N-dimethylimidodicarbonimidic diamide]
- subjects with a reduction in B12 levels in blood ([1]; conventional dosage form such as a tablet): about 30%
- subjects suffering from stomach complaints and diarrhoea ([1]; conventional pharmaceutical composition comprising biguanide (metformin)): roughly 30%
- concentration at 1 h ([2]; subject 1): < 500 ng/mL
- concentration at 2 h ([2]; subject 1): 700 ng/mL
- concentration at 4 h ([2]; subject 1): 800 ng/mL
- concentration at 0 h ([2]; subject 1): < 500 ng/mL
- concentration at 1 h ([2]; subject 2): < 500 ng/mL
- concentration at 2 h ([2]; subject 2): < 500 ng/mL
- concentration at 4 h ([2]; subject 2): 600 ng/mL
- concentration at 0 h ([2]; subject 2): < 500 ng/mL
- negative side-effects ([2]; during the experiment): no negative side-effects were observed
- glucose levels in blood samples [2, 5]: no significant changes
- lipid levels in blood samples [2, 5]: no significant changes
- insulin resistance improvement (HOMA-2) [3, 6]: −0.13
- side-effects: abdominal pain (number of subjects) [3, 6]: 0
- side-effects: diarrhoea (number of subjects) [3, 6]: 0
- side-effects: fatigue (number of subjects) [3, 6]: 0
- side-effects: reflux (number of subjects) [3, 6]: 0
- side-effects: stomach pain (number of subjects) [3, 6]: 1
- side-effects: vertigo (number of subjects) [3, 6]: 0
- Δ waist size [3, 6]: −2.0 cm
- Δ weight [3, 6]: -1.9 kg
- Hyperinsulinaemia Internationale Unit [3, 7]: −1.4 Internationale Unit
- fasting glucose [3, 7]: -0.12 mmol/L
- insulin resistance improvement (HOMA-2) [3, 8]: −3.9
- side-effects: abdominal pain (number of subjects) [3, 8]: 0
- side-effects: diarrhoea (number of subjects) [3, 8]: 0
- side-effects: fatigue (number of subjects) [3, 8]: 0
- side-effects: reflux (number of subjects) [3, 8]: 0
- side-effects: stomach pain (number of subjects) [3, 8]: 0
- side-effects: vertigo (number of subjects) [3, 8]: 0
- Δ waist size [3, 8]: −3.1 cm
- Δ weight [3, 8]: -1.9 kg
- Hyperinsulinaemia Internationale Unit [3, 9]: −3.9 Internationale Unit
- fasting glucose [3, 9]: -0.68 mmol/L
- concentration at 24 h ([3]; both, human, blood, oral): < 250 ng/mL
- subjects indicating a reduced appetite ([3]; out of 10 subjects in the trial group (1 in the placebo group)): 4
- reduction in waist size compared to the placebo [3, 10]: 2-3 fold
- weight loss compared to the placebo [3, 10]: 3 fold
- blood HDL concentration change ([3]; trial group I, after 42 days): No change
- decrease in pulse ([3]; trial group I, after 42 days): −6
- blood HDL concentration change ([3]; trial group II (450 mg metformin per day), after 42 days): +0.12
- decrease in pulse ([3]; trial group II, after 42 days): −2
- degradation of metformin in a fermented (acidic) product ([4]; 28 days (room temperature) or 35 days (refrigerator temperature)): no substantial degradation
- storage stability in a nutritional product ([4]; metformin included in a nutritional product): at least 5 weeks
